According to PMC4977052, “On the Utility of ToxCast™ and ToxPi as Methods for Identifying New Obesogens” (Environmental Health Perspectives, 2016):
Read-outs that look alike come from different tables or passages of the source.

What was measured:
GAL4-mPPARγ = target: T1, GAL4-mPPARγ (Mus musculus, UniProt P37238); test: GAL4-mPPARγ activation, transient transfection luciferase reporter in COS7 cells; assay type: cell-based; details: for Activation COS7 (result in words), ToxCast PPARγ list: PPARγ activation or antagonism assays (Table 1, Table S6); for Activation of GAL4-PPARγ (text): COS7, 100 μM through 0.137 μM
T1 construct: expressed in transfected cells; host or cells: COS7

PPARγ [1] = details: cited from earlier work
C/EBP = system: C/EBP; parameters: method as in Knudsen et al. 2011; details: ToxCast Phase I 2011 release; NA = not active; ref Knudsen et al. 2011; read-out: ATGC CEBP AC50; cited from earlier work
LXRβ [2] = system: LXRβ; parameters: method as in Knudsen et al. 2011; details: ToxCast Phase I 2011 release; NA = not active; ref Knudsen et al. 2011; read-out: NCGC LXR AC50; cited from earlier work
PPRE = system: PPRE; parameters: method as in Knudsen et al. 2011; details: ToxCast Phase I 2011 release; NA = not active; ref Knudsen et al. 2011; read-out: ATGC PPRE AC50; cited from earlier work
SREBP = system: SREBP; parameters: method as in Knudsen et al. 2011; details: ToxCast Phase I 2011 release; NA = not active; ref Knudsen et al. 2011; read-out: ATGC SREBP AC50; cited from earlier work
3T3-L1 preadipocytes [3] = test: 3T3-L1 adipogenesis assay (lipid accumulation, adipogenic gene expression); assay type: cell-based; details: 0.02-20 μM, 5 days after MDI induction
Method in brief: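 After 2-day MDI induction with biotin and pantothenate, 3T3-L1 cells were treated 5 days with chemicals at 0.02–20 μM (0.1% DMSO; 10 μM if toxic). Lipid read as Nile red/Hoechst fluorescence ratio; adipogenic genes by QPCR, 2^ΔΔCt versus 36b4, normalized to DMSO.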

LXRβ [4] = system: LXRβ; parameters: method as in Knudsen et al. 2011; details: ToxCast Phase I 2011 release; NA = not active; ref Knudsen et al. 2011; read-out: ATGT LXRβ AC50; cited from earlier work
LXRα = system: LXRα; parameters: method as in Knudsen et al. 2011; details: ToxCast Phase I 2011 release; NA = not active; ref Knudsen et al. 2011; read-out: ATGT LXRα AC50; cited from earlier work
PPARγ [5] = system: PPARγ; parameters: method as in Filer et al. 2014; details: PPARγ; NA = not active; ref Filer et al. 2014; read-out: NCGC Antag. AC50, 2014 Release; cited from earlier work
3T3-L1 preadipocytes [6] = system: 3T3-L1 preadipocytes; parameters: method as in earlier work; details: not tested here; ref Kanayama et al. 2005; Li et al. 2012; Chamorro-García et al. 2012; Masuno et al. 2002; cited from earlier work
DR4/LXRE = system: DR4/LXRE; parameters: method as in Knudsen et al. 2011; details: ToxCast Phase I 2011 release; NA = not active; ref Knudsen et al. 2011; read-out: ATGC LXRE AC50; cited from earlier work
RXRα = details: ToxCast Phase I 2011 release; NA = not active; ref Knudsen et al. 2011; read-out: NCGC RXRα AC50; cited from earlier work
PPARγ [7] = details: ref Filer et al. 2014, cited from earlier work
Human PPARγ = details: cited from earlier work
COS7 cells = test: Cytotoxicity in transfected COS7 cells measured as decreased β-galactosidase activity; details: African green monkey, 24 h
Method: pCMX-Gal4, pCMX-Gal4-mPPARγ, and pCMX-Gal4-hRXRα were previously described ([Grün et al. 2006]). Transient transfections were performed in COS7 cells as described ([Chamorro-García et al. 2012]). Briefly, COS7 cells were seeded at 15,000 cells per well in 96-well tissue culture plates in 10% calf bovine serum. The following day, cells were transfected in Opti-MEM at ~ 90% confluency. One microgram of CMX-GAL4 effector plasmid was co-transfected with 5 μg tk-(MH100)4-luciferase reporter and 5 μg of CMX-β-galactosidase transfection control plasmids in Opti-MEM® using Lipofectamine® 2000 reagent (Invitrogen™ Life Technologies, Carlsbad, CA, USA), following the manufacturer’s recommended protocol. All chemicals were solvated in dimethyl sulfoxide (DMSO). After overnight incubation, the medium was replaced with Dulbecco’s Modified Eagle Medium (DMEM; HyClone, Logan, UT, USA), 10% resin charcoal stripped fetal bovine serum (FBS) plus ligands at concentrations indicated in the figure legends for an additional 24 hr. DMSO concentration was maintained at 0.05% across all chemical treatments. Cells were lysed and assayed for luciferase and β-galactosidase activity as previously described ([Forman et al. 1995]). All transfections were performed in triplicate and reproduced in multiple experiments. Data are reported as fold induction or reduction over vehicle ([…]) controls ± SEM (standard error of the mean) using standard propagation of error ([Bevington and Robinson 2003]). […] The EC50, EC10, IC50, and IC10 values from NCGC and ToxCast™ are reported from gain AC50 and AC10 values in the ToxCast™ 2014 release ([Filer et al. 2014]).
Figure 1 ToxCast™ Chemical Activity on PPARγ. The ability of a graded dose series of ToxCast™ chemicals to (A) activate or (B) antagonize GAL4-mPPARγ was tested in transiently transfected COS7 cells. (A, B) Data points are averages of triplicate transfections (three biological replicates). […] Data are depicted as (A) fold induction or (B) reduction over vehicle (0.05% DMSO) controls ± SEM. (A) ToxCast™ chemicals were tested in 3-fold serial dilutions from 100 μM through 0.137 μM, with the final data point being 0.05% DMSO. Rosiglitazone serves as a positive control activator. (B) ToxCast™ chemicals were tested in 3-fold serial dilutions from 100 μM, in competition with 50 nM rosiglitazone (Rosi). […] (C) EC50, EC10, IC50, and IC10 values calculated from A and B are reported and compared to commercial assays (see Figure S1). Note: ATG, Attagene GAL-PPARγ activation assay; NCGC, GeneBLAzer® agonist (EC values) or antagonist (IC values) assays. Triphenyltin was previously published ([Kanayama et al. 2005]).

[8] = Cos-7 transient transfection, PPARγ or RXRα activation assays (Table 2)
[9] = ToxCast Phase I 2011 release, NA = not active, ref Knudsen et al. 2011, read-out: ATGT PPARγ AC50
[10] = PPARγ, NA = not active, ref Filer et al. 2014, read-out: ATG Agonist AC50, 2014 Release
[11] = PPARγ, NA = not active, ref Knudsen et al. 2011, read-out: ATG Agonist AC50, 2011 Release
[12] = PPARγ, NA = not active, read-out: NCGC Agonist AC50, 2014 Release
[13] = PPARγ direct binding, NA = not active, ref Filer et al. 2014, read-out: NVS Agonist AC50, 2014 Release
[14] = PPARγ direct binding, NA = not active, ref Knudsen et al. 2011, read-out: NVS Agonist AC50, 2011 Release

T1 sequence (P37238 with tags, fused parts or gaps limits assumed): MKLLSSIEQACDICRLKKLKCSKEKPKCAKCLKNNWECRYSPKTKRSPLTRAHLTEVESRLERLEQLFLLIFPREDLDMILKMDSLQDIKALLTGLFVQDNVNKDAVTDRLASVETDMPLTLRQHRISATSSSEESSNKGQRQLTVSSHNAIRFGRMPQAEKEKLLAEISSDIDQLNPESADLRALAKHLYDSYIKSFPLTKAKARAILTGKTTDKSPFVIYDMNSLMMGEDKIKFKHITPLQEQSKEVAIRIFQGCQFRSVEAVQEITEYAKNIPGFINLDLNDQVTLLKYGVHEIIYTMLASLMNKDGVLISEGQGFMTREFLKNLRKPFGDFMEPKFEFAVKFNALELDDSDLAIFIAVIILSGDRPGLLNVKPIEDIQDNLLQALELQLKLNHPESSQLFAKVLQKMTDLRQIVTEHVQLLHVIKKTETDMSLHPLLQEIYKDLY

SMILES	Activation COS7 (result in words), ToxPi chemicals (GAL4-mPPARγ; [8])	AC50 (PPARγ [1]; [9]) [µM]	AC50 (LXRβ [2]) [µM]	AC50 (PPRE) [µM]	AC50 (SREBP) [µM]	Adipogenesis 3T3-L1 (result in words) (3T3-L1 preadipocytes [3])	Activation COS7 (result in words), ToxCast PPARγ list (GAL4-mPPARγ; Cos-7 transient transfection)	AC50 (LXRβ [4]) [µM]	AC50 (PPARγ [1]; [10]) [µM]	AC50 (PPARγ [1]; [11]) [µM]	AC50 (LXRα) [µM]	AC50 (PPARγ [5]) [µM]	Adipogenesis 3T3-L1 (result in words), previously published (3T3-L1 preadipocytes [6])	also measured
C=CCC1=C(C)C(OC(=O)C2C(C=C(C)C)C2(C)C)CC1=O (mixture of isomers) [d-cis,trans-Allethrin]	Inactive	36	11.9	36	48	Negative	–	–	–	–	–	–	–	AC50 (C/EBP): 25 µM
Cc1nn(C)c(Oc2ccccc2)c1C=NOCc1ccc(C(=O)OC(C)(C)C)cc1 [(Z,E)-Fenpyroximate]	Inactive	–	6.9	0.065	–	Negative	Inactive	8.8	2.4	8.6	4.3	35.9	–	–
CC(C)(c1ccc(O)cc1)c1ccc(O)cc1 [Bisphenol A]	Inactive	27	–	37	–	–	–	–	–	–	–	–	Positive	–
COP(=S)(OC)Oc1ccc(SC)c(C)c1 [Fenthion]	Inactive	36	–	18	–	Negative	–	37	–	–	33	–	–	AC50 (DR4/LXRE): 34 µM
C[Si](Cn1cncn1)(c1ccc(F)cc1)c1ccc(F)cc1 [Flusilazole]	Inactive	51	–	46	20	Positive	–	–	–	–	–	–	–	–
C=CCOC(Cn1ccnc1)c1ccc(Cl)cc1Cl (stereo not drawn) [Imazalil]	Inactive	73	–	–	–	Negative	–	–	–	–	–	–	–	AC50 (RXRα): 3.2 µM
C#CCC1=C(C)C(OC(=O)C2C(C=C(C)C)C2(C)C)CC1=O (stereo not drawn) [Prallethrin]	–	44	16.7	8.4	33	Negative	–	–	–	–	–	–	–	Activation COS7 (result in words), ToxPi chemicals (GAL4-mPPARγ): Inactive; AC50 (C/EBP): 29 µM
CCOP(=S)(Oc1cnc(C(C)(C)C)nc1)OC(C)C (stereo not drawn) [Tebupirimfos]	Inactive	43	7.1	–	31	Positive	–	22	–	–	30	–	–	AC50 (DR4/LXRE): 9.4 µM
CCCOC/C(=N\c1ccc(Cl)cc1C(F)(F)F)n1ccnc1 [Triflumizole]	–	–	–	–	–	–	PPARγ activator	–	2.2	2.8	–	0.3	Positive	Activation of GAL4-PPARγ (text) (GAL4-mPPARγ): activated GAL-PPARγ; AC50 (GAL4-mPPARγ; Cos-7 transient transfection): 11.5 µM; AC50 (PPARγ [7]; [12]): 67.5 µM; AC50 (PPARγ [7]; ToxCast 2014 release, read-out: Tox21/NCGC AC50 (panel A)): 79.9 µM; AC50 (Human PPARγ; [13]): 20.8 µM; AC50 (Human PPARγ; [14]): 35 µM; AC50 (Human PPARγ; direct binding, ToxCast 2014 release, ref Filer et al. 2014, read-out: NovaScreen AC50 (panel A)): 14.1 µM; Concentration at which cytotoxicity (decreased β-galactosidase activity) was observed (COS7 cells): 100 µM; AC50 (PPARγ [1]; ToxCast 2014 release, ref Filer et al. 2014, read-out: Attagene AC50 (panel A, w/o Z-Score Correction ranking)): 20.4 µM
[OH-].c1cc[c]([Sn+]([c]2ccccc2)[c]2ccccc2)cc1 [Triphenyltin]	PPARγ activator	–	–	0.009	–	–	PPARγ activator	–	0.02	0.022	–	0.02	Positive	Activation of GAL4-PPARγ (text) (GAL4-mPPARγ): activated GAL-PPARγ; AC50 (GAL4-mPPARγ; read-out: Activation AC50 (PPARγ activators), Cos-7 transient transfection): 0.02 µM; AC50 (PPARγ [7]; [12]): 21.6 µM; AC50 (Human PPARγ; [13]): 0.28 µM; AC50 (Human PPARγ; [14]): 0.54 µM
